Results reported in US10770169B2, “Method of providing a treatment to a subject based on a dynamic pathway map” (THE REGENTS OF THE UNIVERSITY OF CALIFORNIA, priority 2010, dated 2020).
Read-outs that look alike come from different tables or passages of the source.

Test system: panel of 55 breast cancer cell lines
Assay: Cell growth inhibition assay (Cell Titer Glo, 72 h, 9 doses; GI50, TGI, LC50)
Assay type: cell-based, human
Conditions: Homo sapiens, read-out: GI50 (converted)

## COc1cccc2c1C(=O)c1c(O)c3c(c(O)c1C2=O)C[C@@](O)(C(=O)CO)C[C@@H]3O[C@H]1C[C@H](N)[C@@H](O)[C@H](C)O1 [Epirubicin]
600MPE cell line, censored GI50 values
  GI50: 0.347 µM
AU565, AU565 cell line, censored GI50 values
  GI50: 0.145 µM
AU565, cell line AU565
  GI50: 0.145 µM
BT-474, BT474 cell line, censored GI50 values
  GI50: 6.76 µM
BT-474, cell line BT474
  GI50: 6.76 µM
BT-483, BT483 cell line, censored GI50 values
  GI50: 0.166 µM
BT-483, cell line BT483
  GI50: 0.166 µM
BT-549, BT549 cell line, censored GI50 values
  GI50: 0.204 µM
BT-549, cell line BT549
  GI50: 0.204 µM
HCC38, HCC38 cell line, censored GI50 values
  GI50: 0.0933 µM
HCC38, cell line HCC38
  GI50: 0.0933 µM
HCC70, HCC70 cell line, censored GI50 values
  GI50: 0.417 µM
HCC70, cell line HCC70
  GI50: 0.417 µM
HCC202, HCC202 cell line, censored GI50 values
  GI50: 0.603 µM
HCC202, cell line HCC202
  GI50: 0.603 µM
HCC1143, HCC1143 cell line, censored GI50 values
  GI50: 0.288 µM
HCC1143, cell line HCC1143
  GI50: 0.288 µM
HCC1187, HCC1187 cell line, censored GI50 values
  GI50: 1 µM
HCC1187, cell line HCC1187
  GI50: 1 µM
HCC1395, HCC1395 cell line, censored GI50 values
  GI50: 0.447 µM
HCC1395, cell line HCC1395
  GI50: 0.447 µM
HCC1419, HCC1419 cell line, censored GI50 values
  GI50: 0.708 µM
HCC1419, cell line HCC1419
  GI50: 0.708 µM
HCC1428, HCC1428 cell line, censored GI50 values
  GI50: 1.35 µM
HCC1428, cell line HCC1428
  GI50: 1.35 µM
HCC1500, HCC1500 cell line, censored GI50 values
  GI50: 0.245 µM
HCC1500, cell line HCC1500
  GI50: 0.245 µM
HCC1806, HCC1806 cell line, censored GI50 values
  GI50: 0.166 µM
HCC1806, cell line HCC1806
  GI50: 0.166 µM
HCC1937, HCC1937 cell line, censored GI50 values
  GI50: 0.204 µM
HCC1937, cell line HCC1937
  GI50: 0.204 µM
HCC1954, HCC1954 cell line, censored GI50 values
  GI50: 0.2 µM
HCC1954, cell line HCC1954
  GI50: 0.2 µM
HCC2185 cell line, censored GI50 values
  GI50: 0.126 µM
HCC3153 cell line, censored GI50 values
  GI50: 0.646 µM
LY2 cell line, censored GI50 values
  GI50: 0.214 µM
MCF7, MCF7 cell line, censored GI50 values
  GI50: 0.355 µM
MCF7, cell line MCF7
  GI50: 0.355 µM
MDA-MB-134-VI, MDAMB134VI cell line, censored GI50 values
  GI50: 1.05 µM
MDA-MB-157, MDAMB157 cell line, censored GI50 values
  GI50: 0.55 µM
MDA-MB-157, cell line MDAMB157
  GI50: 0.55 µM
MDA-MB-175-VII, MDAMB175VII cell line, censored GI50 values
  GI50: 0.1 µM
MDA-MB-231, MDAMB231 cell line, censored GI50 values
  GI50: 0.269 µM
MDA-MB-231, cell line MDAMB231
  GI50: 0.269 µM
MDA-MB-361, MDAMB361 cell line, censored GI50 values
  GI50: 0.224 µM
MDA-MB-361, cell line MDAMB361
  GI50: 0.224 µM
MDA-MB-415, MDAMB415 cell line, censored GI50 values
  GI50: 0.263 µM
MDA-MB-415, cell line MDAMB415
  GI50: 0.263 µM
MDA-MB-436, MDAMB436 cell line, censored GI50 values
  GI50: 0.708 µM
MDA-MB-436, cell line MDAMB436
  GI50: 0.708 µM
MDA-MB-453, MDAMB453 cell line, censored GI50 values
  GI50: 0.224 µM
MDA-MB-453, cell line MDAMB453
  GI50: 0.224 µM
MDA-MB-468, MDAMB468 cell line, censored GI50 values
  GI50: 0.692 µM
MDA-MB-468, cell line MDAMB468
  GI50: 0.692 µM
SUM52PE, SUM52PE cell line, censored GI50 values
  GI50: 0.295 µM
SUM52PE, cell line SUM52PE
  GI50: 0.295 µM
SUM149PT, SUM149PT cell line, censored GI50 values
  GI50: 0.219 µM
SUM149PT, cell line SUM149PT
  GI50: 0.219 µM
SUM185PE, SUM185PE cell line, censored GI50 values
  GI50: 0.407 µM
SUM185PE, cell line SUM185PE
  GI50: 0.407 µM
SUM1315MO2, SUM1315MO2 cell line, censored GI50 values
  GI50: 0.0363 µM
SUM-159-PT, SUM159PT cell line, censored GI50 values
  GI50: 0.141 µM
SUM-159-PT, cell line SUM159PT
  GI50: 0.141 µM
UACC-812, UACC812 cell line, censored GI50 values
  GI50: 0.251 µM
UACC-812, cell line UACC812
  GI50: 0.251 µM
UACC-893, UACC893 cell line, censored GI50 values
  GI50: 0.776 µM
UACC-893, cell line UACC893
  GI50: 0.776 µM
ZR-75-1, ZR751 cell line, censored GI50 values
  GI50: 0.251 µM
ZR-75-1, cell line ZR751
  GI50: 0.251 µM
ZR-75B, ZR75B cell line, censored GI50 values
  GI50: 0.115 µM
ZR-75B, cell line ZR75B
  GI50: 0.115 µM
Cell line 600MPE
  GI50: 0.347 µM
Cell line HCC2185
  GI50: 0.126 µM
Cell line HCC3153
  GI50: 0.646 µM
Cell line LY2
  GI50: 0.214 µM
Cell line MDAMB134V
  GI50: 1.05 µM
Cell line MDAMB175V
  GI50: 0.1 µM
Cell line SUM1315MO
  GI50: 0.0363 µM
